Values of other authors, collected in patent US20050250118A1 (priority 2003, published 2005).

Key:
AD patients [1] = conditions: galantamine therapy
AD patients [2] = conditions: presence of the ApoE4 polymorphism

SMILES | most common side effects (AD patients [1]) | response to treatment with ApoE4 allele present (AD patients [2])
COc1ccc2c3c1O[C@H]1C[C@@H](O)C=C[C@@]31CCN(C)C2 [galantamine] | nausea, vomiting, diarrhea, dizziness and anorexia | –
Nc1c2c(nc3ccccc13)CCCC2 [tacrine] | – | reduced response to treatment
